Measured values taken from patent US7253177B2, “Synthesis and antimalarial activity of pyrrolo[3,2-f]quinazoline-1,3-diamine derivatives” (United States of America as Represented by the Secretary of …, priority 2004, dated 2007).
Values after ≈ are worked out from the molar mass of the structure shown. Like-named read-outs stand apart in the source and are kept apart here.

Legend:
[1] = tested on: Plasmodium berghei (KBG-173 strain); type: in vivo; details: for # Mice Alive Day 30/Total / # Mice Dead/Day Died: oral
Protocol: (§1) B. Antimalarial Activities: (a). In Vitro Antimalarial Studies. The in vitro assays were conducted by using a modification of the semiautomated microdilution technique of Desjardins et al and Chulay et al.. Four P. falciparum malaria parasite clones, from CDC Indochina III (W-2), CDC Sierra Leone I (D-6), Southeast Asia Isolates (TM91C235) and RCS (Isolates from Brazil) were utilized in susceptibility testing. They were derived by direct visualization and micromanipulation from patient isolates. The W-2 clone is susceptible to mefloquine but resistant to chloroquine, sulfadoxine, pyrimethamine, and quinine, whereas the D-6 clone is naturally resistant to mefloquine but susceptible to chloroquine, sulfadoxine, pyrimethamine and quinine. Test compounds were initially dissolved in DMSO and diluted 400 fold in RPMI 1640 culture medium supplemented with 25 mM Hepes, 32 mM NaHCO3 and 10% Albumax I (Gibco BRL, Grand Island, N.Y.). These solutions were subsequently serially diluted two-fold with a Biomek 1000 (Beckman, Fullerton, Calif.) over 11 different concentrations. The parasites were exposed to serial dilutions of each compound for 48 hrs and incubated at 37° C. with 5% O2, 5% CO2 and 90% N2 prior to the addition of [^3H]hypoxanthine. After a further incubation of 18 hrs, parasite DNA was harvested from each microtiter well using Packard Filtermate 196 Harvester (Meriden, Conn.) onto glass filters. Uptake of [^3H]hypoxanthine was measured with a Packard Topcount Scintillation. Concentration-response data were analyzed by a non-linear regression logistic dose response model and the IC50 values (50% inhibitory concentrations) for each compound were calculated. (Table 3). (b). In Vivo Antimalarial Studies against P. berghei in mice: The in vivo efficacy of the artelinic acid analogs were determined in a modified Thompson test. This test measures the survivability of mice and parasitemia clearance following administration of drug on days 3-5 post infection. In brief, 5×10^6 P. berghei-infected erythrocytes (KBG-173 strain) were inoculated intraperitoneally to female mice that weighed 24-30 g. By day three post-infection, parasitemia ranged from 1.0-3.7%. Each drug, dissolved in 5% sodium bicarbonate, was administered PO twice daily from day 3-5 post-infection. Total doses for each drug ranged from 1.5-384 mg/kg with 8 mice included in each dosage group. The percent suppression of parasitemia in the treated mice compared to the untreated controls was determined for each test compound; the SD-50 (fifty percent suppression dose) and SD-90 were determined from a non-linear regression logistic dose response fit at day 6 parasitemia data. Survival of mice to day 60 post-infection was considered a cure (C). Compounds were considered active (A) when the survival time of the treated mice was greater than twice the control mice, i.e., 12-14 day (Table 4-5). (c). Sporozoite Induced Test Each compound is ground with a mortar & pestle and suspended in 0.5% hydroxyethylcellulose—0.1% Tween 80 for compounds to be administered PO and those given SC are suspended in peanut oil. Each compound is prepared at 3 different dose levels as requested by WRAIR. Compounds are administered either PO or SC to mice once 4 hr before inoculation of sporozoites. Four-week-old male CD-1 mice, purchased from Charles River and weighing 16-17 g, are placed 5 per cage and allowed to acclimate for 4 days before being treated and then inoculated with sporozoites. They are fed food and water ad-lib and maintained at 76° F. with 12 hr light and 12 hr darkness. The cages and water bottles are changed biweekly. The mice are weighed on Days 0, 3 and 6 then biweekly when blood films are taken. Plasmodium yoelii (17×) is used to infect mice that will be used to infect the mosquitoes. Mice are given a single dose of test compound 4 hr before being inoculated intraperitoneally with 2.5×10^5 sporozoites of Plasmodium yoelii on Day 0. […]

[2] = Death rates after single intragastric treatment in rats; type: in vivo
[3] = Toxicity in P. cynomolgi-infected Rhesus monkeys; details: 12 mg/kg/day for 7 consecutive days
[4] = tested on: Plasmodium falciparum RCS (Isolates from Brazil); test: In vitro antimalarial study, [3H]hypoxanthine uptake, RCS clone; type: cell-based; details: P. falciparum RCS clone
Protocol: as §1

[5] = tested on: Plasmodium falciparum TM91C235 (Southeast Asia Isolates); test: In vitro antimalarial study, [3H]hypoxanthine uptake, TM91C235 clone; type: cell-based
Protocol: as §1

SMILES | # Mice Alive Day 30/Total ([1]; 1.25 mg/kg/day) | # Mice Alive Day 30/Total ([1]; 80-2.5 mg/kg/day) | # Mice Dead/Day Died ([1]; 80-2.5 mg/kg/day) | Deaths ([2]; rats n=4, single intragastric 50 mg/kg in 1% CMC suspension) | Deaths ([2]; rats n=4, single intragastric 100 mg/kg in 1% CMC suspension) | Deaths ([2]; rats n=4, single intragastric 200 mg/kg in 1% CMC suspension) | Deaths ([2]; rats n=4, single intragastric 400 mg/kg in 1% CMC suspension) | Deaths ([2]; rats n=4, single intragastric 800 mg/kg in 1% CMC suspension) | Day of Death: number of deaths ([2]; rats, 800 mg/kg, first cell after Deaths (day uncertain)) | signs of toxicity [3] | IC50 RCS [4] | IC50 TM91C235 ([5]; P. falciparum TM91C235 clone) | drug-related deaths in mice ([1]; in vivo) | # Mice Alive Day 30/Total ([1]; 220-0.625 mg/kg/day) | # Mice Dead/Day Died ([1]; 220-0.625 mg/kg/day) | therapeutic index ([2]; rats) | drug-related deaths in rats ([2]; up to 800 mg by a single oral dose) | IC50 ([4]; Plasmodium falciparum) | IC50 ([5]; Plasmodium falciparum, read-out: IC50 TM91C235)
CCOC(=O)Nc1nc(NC(=O)OCC)c2c(ccc3c2ccn3Cc2ccccc2C(F)(F)F)n1 [Compound 2b] | 3/5 | 5/5 | None | 0/4 | 0/4 | 0/4 | 0/4 | 1/4 | 1 | neither 2b nor 3e exhibited any sign of toxicity | >250 ng/mL | >250 ng/mL | – | – | – | – | – | – | –
CC(=O)N(C(C)=O)c1nc(N(C(C)=O)C(C)=O)c2c(ccc3c2ccn3Cc2ccccc2C(F)(F)F)n1 [Compound 3e, 1,3-Bis(diacetylamino)-7-(2-trifluoromethyl)benzyl-7H-pyrrolo[3,2-f]quinazoline] | – | – | – | – | – | – | – | – | – | neither 2b nor 3e exhibited any sign of toxicity | – | – | no drug-related deaths | 5/5 | None | > 160 | no drug-related deaths | 0.0236 ng/mL (≈ 0.0449 nM) | 0.0845 ng/mL (≈ 0.161 nM)
